Literature values in patent US12161674B2, “CRISPR-CAS9 modified CD34+ human hematopoietic stem and progenitor cells and uses thereof” (Vertex Pharmaceuticals Incorporated, priority 2018, dated 2024).

System: CD34^+ cells
Conditions: plerixafor alone

## c1cc(CN2CCCNCCNCCCNCC2)ccc1CN1CCCNCCNCCCNCC1 [plerixafor]
Despite RBC transfusions in the preceding 2 months
  subjects with non-severe pain crisis: 3 of 7
Subjects with severe SCD, range 5.1 to 20.0
  median collection of CD34^+ cells after a single apheresis: 10.4×10^6 CD34^+ cells/kg
